Measurements reported in the OligoGym collection.
Several values for one entry are separate records, joined by “and”; a condition that tells them apart may be missing. Equal entries are not always repeated. After the bases stand the sugars from the 5' end (letter, count) and the backbone: PS all phosphorothioate, else s phosphorothioate and o phosphodiester by linkage. Methylation of C is not given here. e = 2'-O-(2-methoxyethyl) (MOE); k = constrained ethyl (cEt); d = 2'-deoxy (DNA)

Biological target: SOD1
Settings: ASO

AGGATACATTTCTACAGCTA (sugars e5 d10 e5, PS)
target mRNA inhibition (HepG2, 0.1875 µM): 29% | target mRNA inhibition (HepG2, 0.75 µM): 47% | target mRNA inhibition (HepG2, 3 µM): 82% | target mRNA inhibition (HepG2, 4 µM): 56% | target mRNA inhibition (HepG2, 5 µM): 79% | target mRNA inhibition (HepG2, 12 µM): 80% and 96%

TCTGACAAGTTTAATAC (sugars e3 k2 d7 k2 e3, PS)
target mRNA inhibition (HepG2, 3 µM): 0%

TGACAAGTTTAATACCC (sugars e2 k2 d8 k2 e3, PS)
target mRNA inhibition (HepG2, 5 µM): 43%

AGATTACAGTGTTTAAT (sugars e3 k2 d7 k2 e3, PS)
target mRNA inhibition (HepG2, 3 µM): 45%

GCGATCCCAATTACACC (sugars e3 k2 d7 k2 e3, PS)
target mRNA inhibition (HepG2, 3 µM): 19%

TCTCTTCATCCTTTGGC (sugars e3 k2 d7 k2 e3, PS)
target mRNA inhibition (HepG2, 3 µM): 14%

GATAACAGATGAGTTAA (sugars e2 k2 d9 k2 e2, PS)
target mRNA inhibition (HepG2, 4 µM): 28%

TGCCATACAGGGTTTTT (sugars e2 k2 d9 k2 e2, PS)
target mRNA inhibition (HepG2, 5 µM): 22%

TAGGCCAGACCTCCGCGCCT (sugars e5 d10 e5, PS)
target mRNA inhibition (HepG2, 4 µM): 33%

GAAATTCTGACAAGTTT (sugars e3 k2 d7 k2 e3, PS)
target mRNA inhibition (HepG2, 3 µM): 14%

ATTTCTACAGCTAGCAG (sugars e2 k2 d8 k2 e3, PS)
target mRNA inhibition (HepG2, 4 µM): 66%

CAAGTCATCTGCTTTTT (sugars e3 k2 d7 k2 e3, PS)
target mRNA inhibition (HepG2, 3 µM): 42%

GATCCCAATTACACCAC (sugars e3 k2 d7 k2 e3, PS)
target mRNA inhibition (HepG2, 3 µM): 3%

TCATCTGCTTTTTCATG (sugars e3 k2 d7 k2 e3, PS)
target mRNA inhibition (HepG2, 3 µM): 71%

GAATGTTTATTGGGCGA (sugars e2 k2 d8 k2 e3, PS)
target mRNA inhibition (HepG2, 4 µM): 47%

AATAAGTGCCATACAGG (sugars e2 k2 d8 k2 e3, PS)
target mRNA inhibition (HepG2, 5 µM): 40%

GACTACATCCAAGGGAA (sugars e3 k2 d7 k2 e3, PS)
target mRNA inhibition (HepG2, 3 µM): 19%

TGAATTTGGATTCTTTTAAT (sugars e5 d10 e5, PS)
target mRNA inhibition (HepG2, 5 µM): 0%

GTGAGGACCTGCACTGGTAC (sugars e5 d10 e5, linkages s1 o3 s11 o3 s1)
target mRNA inhibition (A431, 0.12 µM): 0% | target mRNA inhibition (A431, 0.6 µM): 17% | target mRNA inhibition (A431, 3 µM): 0% | target mRNA inhibition (A431, 15 µM): 16% | target mRNA inhibition (HepG2, 0.222 µM): 0% | target mRNA inhibition (HepG2, 0.667 µM): 16% | target mRNA inhibition (HepG2, 2 µM): 70% | target mRNA inhibition (HepG2, 3 µM): 50% | target mRNA inhibition (HepG2, 6 µM): 35%

GGTTCCGAGGACTGCAACGG (sugars e5 d10 e5, PS)
target mRNA inhibition (HepG2, 4 µM): 35%

AACTATACAAATCTTCC (sugars e3 k2 d7 k2 e3, PS)
target mRNA inhibition (HepG2, 3 µM): 28%

CTTTTAATAGCCTCATAATA (sugars e5 d10 e5, PS)
target mRNA inhibition (HepG2, 5 µM): 0%

ATACAGGTCATTGAAAC (sugars e2 k2 d8 k2 e3, PS)
target mRNA inhibition (HepG2, 5 µM): 33%

TTCATGGACCACCAGTGTGC (sugars e5 d10 e5, PS)
target mRNA inhibition (HepG2, 5 µM): 21%

CAGTTTCTCACTACAGG (sugars e2 k2 d8 k2 e3, PS)
target mRNA inhibition (HepG2, 5 µM): 38%

CTTCCCCACACCTTCAC (sugars e3 k2 d7 k2 e3, PS)
target mRNA inhibition (HepG2, 3 µM): 29%

TATTCACAGGCTTGAAT (sugars e2 k2 d8 k2 e3, PS)
target mRNA inhibition (HepG2, 5 µM): 24%

GCAGGAGACTACGACGCAAA (sugars e5 d10 e5, PS)
target mRNA inhibition (HepG2, 4 µM): 33%

TGGTCCATTACTTTCCT (sugars e3 k2 d7 k2 e3, PS)
target mRNA inhibition (HepG2, 3 µM): 5%

TATTCACAGGCTTGAAT (sugars e3 k2 d7 k2 e3, PS)
target mRNA inhibition (HepG2, 3 µM): 0%

CGCAAACCAGCACCCCGTCT (sugars e5 d10 e5, PS)
target mRNA inhibition (HepG2, 4 µM): 21%

TAGAGGATTAAAGTGAG (sugars e3 k2 d7 k2 e3, PS)
target mRNA inhibition (HepG2, 3 µM): 21%

CAAGGGAATGTTTATTG (sugars e2 k2 d8 k2 e3, PS)
target mRNA inhibition (HepG2, 4 µM): 43%

GACAAAGAAATTCTGACAAG (sugars e5 d10 e5, PS)
target mRNA inhibition (HepG2, 5 µM): 8%

AAGTTTAATACCCATCT (sugars e2 k2 d8 k2 e3, PS)
target mRNA inhibition (HepG2, 5 µM): 54%

CCTTCACTGGTCCATTA (sugars e3 k2 d7 k2 e3, PS)
target mRNA inhibition (HepG2, 3 µM): 8%

GTTTAATGTTTATCAGG (sugars e2 k2 d9 k2 e2, PS)
target mRNA inhibition (HepG2, 0.1875 µM): 67% | target mRNA inhibition (HepG2, 0.75 µM): 84% | target mRNA inhibition (HepG2, 3 µM): 94% | target mRNA inhibition (HepG2, 5 µM): 92% | target mRNA inhibition (HepG2, 12 µM): 96%

CACTACAGGTACTTTAAAGC (sugars e5 d10 e5, PS)
target mRNA inhibition (HepG2, 5 µM): 18%

TTTCCACCTTTGCCCAA (sugars e3 k2 d7 k2 e3, PS)
target mRNA inhibition (HepG2, 3 µM): 78%

TAATGTTTATCAGGATA (sugars e2 k2 d8 k2 e3, linkages s1 o2 s9 o2 s2)
target mRNA inhibition (A431, 0.12 µM): 0% | target mRNA inhibition (A431, 0.6 µM): 38% | target mRNA inhibition (A431, 3 µM): 54% | target mRNA inhibition (A431, 15 µM): 68% | target mRNA inhibition (HepG2, 0.222 µM): 64% | target mRNA inhibition (HepG2, 0.667 µM): 89% | target mRNA inhibition (HepG2, 2 µM): 94% | target mRNA inhibition (HepG2, 6 µM): 92%

ATTGAAACAGACATTTT (sugars e3 k2 d7 k2 e3, PS)
target mRNA inhibition (HepG2, 3 µM): 22%

CTCGAAATTGATGATGCCCT (sugars e5 d10 e5, PS)
target mRNA inhibition (HepG2, 4 µM): 31%

TTAATGTTTATCAGGA (sugars ekddddddddekekee, linkages s1 o1 s8 o3 s2)
target mRNA inhibition (A431, 0.12 µM): 0% | target mRNA inhibition (A431, 0.6 µM): 7% | target mRNA inhibition (A431, 3 µM): 21% | target mRNA inhibition (A431, 15 µM): 46% | target mRNA inhibition (HepG2, 0.222 µM): 52% | target mRNA inhibition (HepG2, 0.667 µM): 73% | target mRNA inhibition (HepG2, 2 µM): 84% | target mRNA inhibition (HepG2, 6 µM): 93%

TGCCATACAGGGTTTTT (sugars e3 k2 d7 k2 e3, PS)
target mRNA inhibition (HepG2, 3 µM): 9%

CACCCCGTCTCCGCGACTAC (sugars e5 d10 e5, PS)
target mRNA inhibition (HepG2, 4 µM): 13%

TACACCACAAGCCAAAC (sugars e2 k2 d8 k2 e3, PS)
target mRNA inhibition (HepG2, 4 µM): 56%
